Results taken from US20260207637A1, “MODULATOR FOR PROMOTING BINDING OF BUTYROPHILIN 3A1/2A1” (priority 2023, published 2026).
Read-outs that look alike come from different tables or passages of the source.

Experiments:
[1] = Stability experiment of compounds in human liver microsomes; assay type: in vitro ADME; details: NADPH, 37° C., read-out: T1/2 in human liver microsomes
Procedure: Compounds were prepared as a 10 mM stock solution with DMSO and then diluted with 80% acetonitrile-water to a 100 μM working solution for later use. Human liver microsomes were obtained from BIOIVT.
(1) The liver microsomes taken out from the refrigerator were placed in a 37° C. water bath thermostatic oscillator, pre-incubated for 5 min, and thawed for later use.
(2) A certain amount of NADPH was weighed and added to an appropriate amount of magnesium chloride solution to dissolve into a 2 mM solution for later use.
(3) A mixed solution of the warm incubation system (containing no β-NADPH) was prepared according to the proportions in the “composition of the experimental warm incubation system” above and dispensed at 165 μL/tubes (45 μL/tube for the negative control group and 120 μL/tube for the positive control group).
(4) For the sample at 0 min: 200 μL of internal standard working precipitant was added and then 30 μL of NADPH solution was added.
(5) For other samples: 135 μL NADPH solution was added to initiate the reaction (45 μL magnesium chloride solution was added for the negative control group), and incubated in a 37° C. water bath for 5, 15, 30, and 60 min (incubated in a 37° C. water bath for 60 min for the negative control group), then 60 μL was sampled and added to 200 µL of precipitant containing internal standard.
(6) For the positive control group: 90 L NADPH solution was added to initiate the reaction, and incubated in a 37° C. water bath for 5, 15 min, then 60 μL was sampled and added to 200 μL of precipitant containing internal standard.
(7) For neat sample: 297 μL of water was pipetted into a tube, 1000 μL of internal standard working solution was added, and 3 μL of test compound working solution was added.
(8) All samples were vortexed and centrifuged.
(9) 150 μL of the supernatant was sampled and added to 150 μL of water, mixed uniformly by vortex, and analyzed by LC-MS/MS. The half-life stability data of human liver microsomes is as follows: […]

[2] = Binding rate test of compounds and human plasma protein (equilibrium dialysis); assay type: in vitro ADME; details: human plasma, equilibrium dialysis 6 hours, 37° C.
Procedure: (1) The dry dialysis membrane was soaked with ultrapure water for 20 min or more than 20 min, then soaked with 20% ethanol for 30 min to 1 h, and the membrane was rinsed with ultrapure water 2-3 times. Finally, the membrane was soaked with ultrapure water for 20 minutes for later use.
(2) The frozen plasma was thawed in a water bath at 37° C.
(3) The test compound was diluted into plasma preheated to 37° C. at a final concentration of 1 μM, and the final concentration of the control compound warfarin in plasma was 2 μM.
(4) The pre-treated dialysis membrane was assembled into the dialysis plate according to the specification of the product, and 120 μL of the receiving solution (100 mM phosphate buffer solution added 0.002% Tween 80) was added to one side of the permeable membrane in each dialysis well.
(5) 20 μL of each of the final solutions of the test compound and the control compound were added into a 96-well sample plate in duplicate, and the TO sample was obtained, which was stored in a refrigerator at −20° C. Another 20 μL of the above final solution was added to the other side of the membrane in the dialysis device in duplicate, and incubated at 37° C. by shaking at constant temperature for 6 hours.
(6) After 6 hours of incubation, 20 L of each of the dialyzed receiving solution and the administered plasma were weighed to obtain sample B and sample A in duplicate. The corresponding volume of corresponding blank plasma or receiving solution was added to sample B and sample A, respectively, so that the volume ratio of plasma to buffer in each sample well was 1:1. 300 μL of acetonitrile solution containing internal standard was added to all sample wells, and centrifuged after mixed uniformly.
(7) 200 μL of ultrapure water (150 μL for the control group) was added into the corresponding sample wells of the 96-well sample plate, and 300 μL of the supernatant (150 μL for the control group) was added into the sample well; the samples were analyzed after mixed uniformly. The free percentage and recovery rate of the compound in plasma were calculated using the following formula: Plasma protein binding rate (%)=1−free percentage, wherein free percentage (%)=CB/CA
wherein CB is the concentration of the compound in the receiving solution after equilibrium dialysis, CA is the concentration of the compound in the drug-dosed plasma after equilibrium dialysis, and CT0 is the initial concentration of the compound in plasma.

MIApaca/FG2 cells = assay: EC50 assay of small molecule activated γδ T cells to kill MIApaca/FG2 tumor cells (3-fold dilution protocol); assay type: cell-based; details: 0.05-100 nM, read-out: MIApaca killing (EC50)
Procedure: γδT cells and MIApaca/FG2 tumor cell lines were expanded and cultured in vitro. MIApaca/FG2 cells were digested, and the cells were counted and resuspended in DMEM complete medium, the density of the cell suspension was adjusted and added into a 96-well plate at 5×10^3 cells/100 […]/well for overnight incubation. On the next day, the test compound and the control compound were diluted at a 3-fold ratio with DMSO, and 4 μL of the diluted compound was added to 96 μL of culture medium for 25-fold dilution. 5 μL of 25-fold diluted compound was transferred to the corresponding well which had been plated with tumor cells, and the actual detection concentration was in the range of 0.05-100 nM. γδT cells were resuspended in γδT complete medium, and the density of the cell suspension was adjusted according to the effector-target ratio of E:T=2:1, and then the cell was added to the corresponding well at 1×10^4 cells/100 μL/well. After co-culture at 37° C., 5% CO2 for 20 hours, the cells were centrifuged. The supernatant was removed, and 50 μL of cell lysate containing fluorescein substrate was added to each well. After standing for 18 minutes in the dark, the signal of chemiluminescence was detected. The EC50 value was calculated by four-parameter fitting, with the corresponding signal value of the well with only tumor cells as the minimum killing value, and the corresponding value of the well without tumor cells as the maximum killing value. The killing data of MIApaca/FG2 cells is as follows: […]

[3] = γδT cells + MIApaca/FG2, E:T=2:1, co-culture 20 hours
[4] = Homo sapiens, MIA PaCa-2, γδT cells + MIApaca/FG2, E:T=2:1, co-culture 20 hours

Row | Structure (SMILES) | half-life [1] | fraction unbound at 6 h, 1 μM [2] | EC50 (MIApaca/FG2 cells; [3]) | EC50 (MIApaca/FG2 cells; [4])
1 | C/C(=C\CCP(=O)(N[C@@H](C)C(=O)O[C@H]1CCOC1)Oc1ccccc1)CO (stereo partly drawn) [Compound 8, (S)-tetrahydrofuran-3-yl (((E)-5-hydroxy-4-methylpent-3-en-1-yl)(phenoxy)phosphoryl)-L-alaninate] | 27.3 min | 0.168 | – | –
2 | CC(=O)N1CCC(OC(=O)[C@H](C)NP(=O)(CC/C=C(\C)CO)Oc2ccccc2)CC1 (stereo partly drawn) [Compound 29] | – | – | 1630 pM | –
3 | C/C(=C\CCP(=O)(N[C@@H](C)C(=O)OCCO)Oc1ccccc1)CO (stereo partly drawn) [Compound 25, 2-Hydroxyethyl (((E)-5-hydroxy-4-methylpent-3-en-1-yl)(phenoxy)phosphoryl)-L-alaninate] | – | – | 170 pM | –
4 | C/C(=C\CC(F)(F)P(=O)(N[C@@H](C)C(=O)OC1CCOCC1)Oc1ccccc1)CO (stereo partly drawn) [Compound 38] | – | – | 650 pM | –
5 | C/C(=C\CCP(=O)(N[C@@H](C)C(=O)OC1CCN(CC(F)(F)F)CC1)Oc1ccccc1)CO (stereo partly drawn) [Compound 31] | 3.91 min | 0.129 | – | 130 pM
6 | C/C(=C\CCP(=O)(N[C@@H](C)C(=O)OC1CCS(=O)(=O)CC1)Oc1ccccc1)CO (stereo partly drawn) [Compound 28, 1,1-Dioxotetrahydro-2H-thiopyran-4-yl (((E)-5-hydroxy-4-methylpent-3-en-1-yl)(phenoxy)phosphoryl)-L-alaninate] | – | – | 880 pM | –
7 | C/C(=C\CC[P@@](=O)(N[C@@H](C)C(=O)O[C@@H]1CCOC1)Oc1ccccc1)CO (single isomer, unassigned) [Compound 18] | 20.9 min | 0.178 | – | 200 pM
8 | C/C(=C\CCP(=O)(N[C@@H](C)C(=O)O[C@@H]1CCNC(=O)C1)Oc1ccccc1)CO (stereo partly drawn) [Compound 35, (R)-2-piperidone-4-yl (((E)-5-hydroxy-4-methylpent-3-en-1-yl)(phenoxy)phosphoryl)-L-alaninate] | 82.5 min | 0.429 | – | 2150 pM
9 | C/C(=C\CCP(=O)(N[C@@H](C)C(=O)OC1CCOCC1)Oc1ccccc1)CO (stereo partly drawn) [Compound 20] | 24 min | 0.227 | – | 480 pM
10 | C/C(=C\CCP(=O)(N[C@@H](C)C(=O)OC1CC2(COC2)C1)Oc1ccccc1)CO (stereo partly drawn) [Compound 30, 2-Oxaspiro[3.3]heptan-6-yl (((E)-5-hydroxy-4-methylpent-3-en-1-yl)(phenoxy)phosphoryl)-L-alaninate] | 24.4 min | 0.359 | – | 110 pM
11 | C/C(=C\CCP(=O)(N[C@@H](C)C(=O)O[C@H]1CO[C@H]2OCC[C@H]21)Oc1ccccc1)CO (stereo partly drawn) [Compound 32, (3R,3aS,6aR)-hexahydrofuran[2,3-b]furan-3-yl (((E)-5-hydroxy-4-methylpent-3-en-1-yl)(phenoxy)phosphoryl)-L-alaninate] | 11.4 min | 0.214 | – | 210 pM
12 | C/C(=C\CCP(=O)(N[C@@H](C)C(=O)O[C@@H]1CCOC1)Oc1ccc(C)cc1)CO (stereo partly drawn) [Compound 16] | – | – | 550 pM | –
13 | C/C(=C\CCP(=O)(N[C@@H](C)C(=O)OC1(C#N)CCCC1)Oc1ccccc1)CO (stereo partly drawn) [Compound 36, 1-Cyanocyclopentyl (((E)-5-hydroxy-4-methylpent-3-en-1-yl)(phenoxy)phosphoryl)-L-alaninate] | 3.08 min | 0.038 | – | < 50 pM
14 | C/C(=C\CCP(=O)(NC(C)(C)C(=O)O[C@@H]1CCOC1)Oc1ccccc1)CO (stereo partly drawn) [Compound 26, (R)-tetrahydrofuran-3-yl 2-((((E)-5-hydroxy-4-methylpent-3-en-1-yl)(phenoxy)phosphoryl)amino)-2-methylpropanoate] | – | – | 100 pM | –
15 | C/C(=C\CC(F)(F)P(=O)(N[C@@H](C)C(=O)O[C@@H]1CCOC1)Oc1ccccc1)CO (stereo partly drawn) [Compound 37, (R)-tetrahydrofuran-3-yl (((E)-1,1-difluoro-5-hydroxy-4-methylpent-3-en-1-yl)(phenoxy)phosphoryl)-L-alaninate] | 8.11 min | 0.098 | – | 200 pM
16 | C/C(=C\CCP(=O)(N[C@@H](C)C(=O)O[C@@H]1CCOC1)Oc1ccc(Cl)cc1)CO (stereo partly drawn) [Compound 15] | – | – | 200 pM | –
17 | CC(C)OC(=O)[C@H](C)NP(=O)(CC/C=C(/CO)C(F)(F)F)Oc1ccccc1 (stereo partly drawn) [Compound 24, isopropyl (phenoxy((Z)-5,5,5-trifluoro-4-(hydroxymethyl)pent-3-en-1-yl)phosphoryl)-L-alaninate] | – | – | 780 pM | –
18 | C[C@H](NP(=O)(CC/C=C(/CO)C(F)(F)F)Oc1ccccc1)C(=O)O[C@@H]1CCOC1 (stereo partly drawn) [Compound 27, (R)-tetrahydrofuran-3-yl (phenoxy((Z)-5,5,5-trifluoro-4-(hydroxymethyl)pent-3-en-1-yl)phosphoryl)-L-alaninate] | 10.5 min | 0.193 | – | 230 pM
19 | CC(C)OC(=O)[C@H](C)NP(=O)(CC/C=C(\F)CO)Oc1ccccc1 (stereo partly drawn) [Compound 23, Isopropyl (((Z)-4-fluoro-5-hydroxy-3-en-1-yl)(phenoxy)phosphoryl)-L-alaninate] | – | – | 3960 pM | –
20 | C/C(=C\CCP(=O)(N[C@@H](C)C(=O)O[C@@H]1CCO[C@H](C)C1)Oc1ccccc1)CO (stereo partly drawn) [Compound 33] | 19.9 min | 0.192 | – | 650 pM
21 | C/C(=C\CCP(=O)(N[C@@H](C)C(=O)O[C@@H]1CCOC1)Oc1ccccc1)CO (stereo partly drawn) [Compound 7, (R)-Tetrahydrofuran-3-yl (((E)-5-hydroxy-4-methylpent-3-en-1-yl)(phenoxy)phosphoryl)-L-alaninate] | 21.6 min | 0.222 | – | –
22 | C/C(=C\CCP(=O)(N[C@@H](C)C(=O)O[C@H]1C[C@@H](C)O[C@@H](C)C1)Oc1ccccc1)CO (stereo partly drawn) [Compound 34, (2R,4r,6S)-2,6-dimethyltetrahydro-2H-pyran-4-yl (((E)-5-hydroxy-4-methylpent-3-en-1-yl)(phenoxy)phosphoryl)-L-alaninate] | – | – | 1030 pM | –
23 | C/C(=C\CCP(=O)(N[C@@H](C)C(=O)O[C@@H]1CCOC1)Oc1cccc2ccccc12)CO (stereo partly drawn) [Compound 17] | – | – | 120 pM | –
